Results reported in US4361553A, “Therapeutic uses of dynorphin” (Regents of the University of California, priority 1981, dated 1982).

How the values were obtained:
morphine tolerant mice [1] = test: Tail-flick analgesia, morphine s.c. with or without dynorphin-(1-13) i.c.v., morphine tolerant group (Example I); assay type: in vivo; conditions: dynorphin alone up to 50 μg/mouse
Protocol: (§1) Male simonesen ICR mice (Gilroy, CA) weighing between 20-25 g were housed for at least one day prior to experimentation, and used within 5 days. Each mouse was used only once.
(§2) Analgesia was measured by the tail-flick method of D'Amour and Smith, J.Pharmac.Exp.Ther., 72, pp. 74-79 (1941), incorporated herein by reference, as modified by Tulunay and Takemori, J.Pharmac.Exp.Ther., 190, pp. 395-400 (1974), incorporated herein by reference. […] Nonresponding animals were removed from the heat stimulus when reaction times exceeded 10 sec. to avoid the tail damage.
(§3) Drugs were injected 30 min prior to testing, unless otherwise indicated.
(§4) The animals were separated into two groups.
(§5) The ED50 values, their 95% confidence limits and significance of the potency ratio between two ED50 values were determined by the method of Litchfield and Wilcoxon, J.Pharmacol.Exp.Ther, 96:99-113 (1949), incorporated herein by reference.

guinea pig ileum = conditions: cited from earlier work
mouse vas deferens = conditions: cited from earlier work
morphine dependent mice = test: Spontaneous withdrawal jumping after removal of morphine pellets (Example IV); assay type: in vivo; conditions: compared with saline
Protocol: Mice which jumped were separated and received 4 μl of saline i.c.v. or different doses of dynorphin, and tested 30 min and then 60 min after injection.

naive mice = test: Tail-flick analgesia, morphine s.c. with or without dynorphin-(1-13) i.c.v., naive group (Example III); assay type: in vivo
Protocol: as §1, §2, §3, §4, §5

[2] = Addictiveness compared with morphine; assay type: in vivo
morphine tolerant mice [3] = test: Tail-flick analgesia, β-endorphin i.c.v. with or without dynorphin-(1-13) i.c.v., morphine tolerant group (Example II); assay type: in vivo; conditions: for ED50 of β-endorphin: i.c.v.
Protocol: as §1, §2, §3, §4, §5

Compound: dynorphin
- Own analgesic potency (morphine tolerant mice [1]): no analgesic potency
- Agonist properties in guinea pig ileum (guinea pig ileum): potent agonist properties
- Agonist properties in mouse vas deferens (mouse vas deferens): potent agonist properties
- Effect on withdrawal (morphine dependent mice): significantly reduced, or repressed, withdrawal

Compound: CN1CC[C@]23c4c5ccc(O)c4O[C@H]2[C@@H](O)C=C[C@H]3[C@H]1C5.O=S(=O)(O)O [Morphine, morphine sulfate]
- Analgesia (%) (naive mice; morphine 2 mg/kg s.c. alone): 10%
- Analgesia (%) (naive mice; morphine 4 mg/kg s.c. alone): 30%
- Analgesia (%) (naive mice; morphine 7.5 mg/kg s.c. alone): 80%

Compound: CC[C@H](C)[C@H](NC(=O)[C@H](CCCNC(=N)N)NC(=O)[C@H](CCCNC(=N)N)NC(=O)[C@H](CC(C)C)NC(=O)[C@H](Cc1ccccc1)NC(=O)CNC(=O)CNC(=O)[C@@H](N)Cc1ccc(O)cc1)C(=O)N[C@@H](CCCNC(=N)N)C(=O)N1CCC[C@H]1C(=O)N[C@@H](CCCCN)C(=O)N[C@@H](CC(C)C)C(=O)N[C@@H](CCCCN)C(=O)O [dynorphin-(1-13)]
- Times less addictive than morphine [2]: at least 100 times

Compound: β-endorphin
- ED50 of β-endorphin (morphine tolerant mice [3]; in the presence of 10 μg dynorphin-(1-13)): about 1.00 μg/mouse
- ED50 of β-endorphin (morphine tolerant mice [3]; in the presence of 20 μg dynorphin-(1-13)): about 0.55 μg/mouse
- Analgesia (%) (morphine tolerant mice [3]; β-endorphin 1 μg/mouse i.c.v. alone): 10%
- Analgesia (%) (morphine tolerant mice [3]; β-endorphin 2 μg/mouse i.c.v. alone): 40%
- Analgesia (%) (morphine tolerant mice [3]; β-endorphin 6 μg/mouse i.c.v. alone): 100%
